According to ChEMBL document CHEMBL5338732, “Perspective for Discovery of Small Molecule IL-6 Inhibitors through Study of Structure-Activity Relationships and Molecular Docking” (J Med Chem, 2023):

How the values were obtained:
Format in all cases: functional, cell-based
MH60 = assay: Cytotoxicity in mouse MH60 cells assessed as inhibition of recombinant human IL-6-induced growth incubated for 72 hrs by tetrazolium method; conditions: MH60, 72 h
MDA-MB-435 = assay: Cytotoxicity against human MDA-MB-435 cells assessed as reduction in cell growth incubated for 72 hrs by MTT assay; conditions: MDA-MB-435, 72 h
[1] = Cytotoxicity against human p53HCT116 cells assessed as inhibition of cell growth incubated for 72 hrs by MTT assay; conditions: p53HCT116, 72 h
[2] = Cytotoxicity against human HCT116-p53-null cells assessed as inhibition of cell growth incubated for 72 hrs by MTT assay

Compound | IC50 (MH60) [µM] | IC50 (MDA-MB-435) [µM] | IC50 [1] [µM] | IC50 [2] [µM]
Cc1c(-c2ccc(O)cc2)n(Cc2ccc(OCCN3CCCCCC3)cc2)c2ccc(O)cc12 [BAZEDOXIFENE] | 3.8 |  |  | 
CCCCC1=C(C)C(=O)[C@](C)(CN2c3ccccc3[C@]3(O)CCO[C@H]23)C1=O | 30 |  |  | 
O=C(NNc1nc2cc(F)ccc2n2cccc12)c1cnccn1 |  | 0.4 | 0.4 | 0.4
CCCCC1=C(C)C(=O)[C@@](C)(CN2c3ccccc3[C@]3(O)CCO[C@H]23)C1=O | 8 |  |  | 
